Experimental findings from patent publication US20260070917A1, “CYCLIN DEPENDENT KINASE DEGRADERS AND METHODS OF USE THEREOF” (Differentiated Therapeutics Inc, priority 2023, published 2026) are described below.

Holding throughout (type): cell-based
One experiment concerns the target T1, CDK9 (Homo sapiens, UniProt P50750).
T1 construct: host or cells: HEK293-CDK9-Hibit
Kind of experiment: HiBit Assay Protocol for CDK9 (HIBIT protein quantification, degradation). As to conditions: 6 h, HEK293-CDK9-Hibit cells, compound treatment for 6 hours; read-out: CDK9 HIBIT Protein Quantification Maximum. In outline:
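HEK293 cells carrying HiBiT-tagged CDK9 treated 6 h with compounds in a 3-fold, 10-point dilution series. CDK9 level read by lytic Nano-Glo HiBiT/LgBiT luminescence and normalized to 0.1% DMSO (high) and medium-only (low) controls. DC50 from curve fitting.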
Background: With HiBiT, luminescence reflects the tagged protein that the partner subunit can reach.

The target in the next experiment is T2, CDK2 (Homo sapiens, UniProt P24941).
T2 construct: host or cells: HEK293-CDK2-Hibit
In words: HiBit Assay Protocol for CDK2 (HIBIT protein quantification, degradation). The note with it: HEK293-CDK2-Hibit cells, compound treatment for 6 hours; for DC50: ABS DC50. In outline: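 HEK293 cells expressing HiBiT-tagged CDK2 were seeded overnight, then treated 6 h with a 3-fold, 10-point compound dilution series. CDK2 levels were read as luminescence after lytic HiBiT/LgBiT detection, normalised to DMSO-only and medium-only controls, and DC50 derived by curve fitting.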

The target in another experiment is T3, CCNE1 (Homo sapiens, UniProt P24864).
T3 construct: host or cells: HEK293-CCNE1-Hibit
T3 sequence (P24864 whole entry): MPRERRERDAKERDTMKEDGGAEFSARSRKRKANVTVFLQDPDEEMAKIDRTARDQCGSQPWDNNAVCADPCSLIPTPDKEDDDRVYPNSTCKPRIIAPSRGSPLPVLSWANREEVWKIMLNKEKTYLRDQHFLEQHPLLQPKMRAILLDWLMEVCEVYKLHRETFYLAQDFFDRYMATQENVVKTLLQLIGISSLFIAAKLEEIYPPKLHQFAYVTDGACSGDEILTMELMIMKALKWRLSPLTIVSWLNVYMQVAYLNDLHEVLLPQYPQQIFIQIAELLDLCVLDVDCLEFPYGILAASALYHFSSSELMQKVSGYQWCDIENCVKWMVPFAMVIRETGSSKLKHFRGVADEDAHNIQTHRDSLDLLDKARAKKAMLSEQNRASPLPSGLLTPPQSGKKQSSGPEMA
Kind of experiment: HiBit Assay Protocol for CCNE1 (HIBIT protein quantification, degradation). The note with it: HEK293-CCNE1-Hibit cells, compound treatment for 6 hours. In outline:
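HEK293 cells expressing HiBiT-tagged CCNE1 were seeded overnight, then treated 6 h with a 3-fold, 10-point compound dilution series. HiBiT levels were read by lytic LgBiT luminescence and normalised to DMSO-only (high) and medium-only (low) controls. DC50 was derived by curve fitting.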

T1 sequence (P50750 whole entry): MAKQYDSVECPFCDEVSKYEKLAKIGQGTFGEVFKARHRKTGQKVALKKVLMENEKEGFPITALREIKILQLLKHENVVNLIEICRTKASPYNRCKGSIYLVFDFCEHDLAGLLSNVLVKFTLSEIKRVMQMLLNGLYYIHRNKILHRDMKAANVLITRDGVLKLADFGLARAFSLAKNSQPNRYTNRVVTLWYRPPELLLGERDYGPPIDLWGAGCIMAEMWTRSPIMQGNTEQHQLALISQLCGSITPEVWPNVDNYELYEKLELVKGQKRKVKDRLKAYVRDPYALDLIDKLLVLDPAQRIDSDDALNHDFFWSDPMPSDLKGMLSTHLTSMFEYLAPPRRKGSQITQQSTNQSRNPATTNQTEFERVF

For orientation: DC50 means the midpoint of the concentration-degradation curve. Read a high DC50 as degradation only at high concentration. On to `Cc1cc(CN2CCC(c3ccc4c(N5CCC(=O)NC5=O)nn(C)c4c3)CC2)cc(S(=O)(=O)N2CCC(Nc3ncc4c(n3)N([C@@H]3CCC[C@@H](O)C3)C(=O)C43CC3)CC2)c1` [Compound 167, 1-[6-(1-{[3-(4-{7′-[(1R,3R)-3-Hydroxycyclohexyl]-6′-oxospiro[cyclopropane-1,5′-pyrrolo[2,3-d]pyrimidin]-2′-ylamino}piperidin-1-ylsulfonyl)-5-methylphenyl]methyl}piperidin-4-yl)-1-methylindazol-3-yl]-1,3-diazinane-2,4-dione], for which the Dmax on CDK9 was determined as 15%. Besides, on CDK2, the “CDK2 HIBIT Protein Quantification Maximum” value was 70% and it took 3.77 nM to reach half-maximal degradation (DC50). Moreover, the “CCNE1 HIBIT Protein Quantification Maximum” value at CCNE1 is listed as 32%.

`CC1CCCC1N1C(=O)C2(CC2)c2cnc(NC3CCN(S(=O)(=O)N4CC5(CCN(C(=O)CCCc6ccc7c(c6)n(C)c(=O)n7C6CCC(=O)NC6=O)CC5)C4)CC3)nc21` (stereo not drawn) [Compound 68]: the Dmax at CDK9 was 6%. The “CDK2 HIBIT Protein Quantification Maximum” value on CDK2 turned out to be 38%. Besides, the “CCNE1 HIBIT Protein Quantification Maximum” value on CCNE1 stood at 9%.

With `CC1CCCC1N1C(=O)C2(CC2)c2cnc(NC3CCN(S(=O)(=O)N4CCC5(CCN(C(=O)CCCCCc6cccc7c6n(C)c(=O)n7C6CCC(=O)NC6=O)C5)C4)CC3)nc21` (stereo not drawn) [Compound 42], at CDK9, the Dmax was found to be 17%. Also, at CDK2, the “CDK2 HIBIT Protein Quantification Maximum” value was determined as 70% and the DC50 was 7 nM. The “CCNE1 HIBIT Protein Quantification Maximum” value on CCNE1 was 23%.

As to `CC1CCCC1N1C(=O)C2(CC2)c2cnc(NC3CCN(S(=O)(=O)N4CCC5(CCN(C(=O)CCCc6ccc7c(c6)n(C)c(=O)n7C6CCC(=O)NC6=O)C5)C4)CC3)nc21` (stereo not drawn) [Compound 129], the Dmax on CDK9 was 17%. Also, on CDK2, the “CDK2 HIBIT Protein Quantification Maximum” value worked out at 51% and the DC50 came out at 42 nM. For the same compound, on CCNE1, the “CCNE1 HIBIT Protein Quantification Maximum” value turned out to be 18%.

As for `Cn1nc(N2CCC(=O)NC2=O)c2cc(F)c(C3CCN(Cc4cccc(S(=O)(=O)N5CCC(Nc6ncc7c(n6)N([C@@H]6CCC[C@@H](O)C6)C(=O)C76CC6)CC5)c4)CC3)cc21` [Compound 176, 1-[5-Fluoro-6-(1-{[3-(4-{7′-[(1R,3R)-3-hydroxycyclohexyl]-6′-oxospiro[cyclopropane-1,5′-pyrrolo[2,3-d]pyrimidin]-2′-ylamino}piperidin-1-ylsulfonyl)phenyl]methyl}piperidin-4-yl)-1-methylindazol-3-yl]-1,3-diazinane-2,4-dione], the Dmax at CDK9 is 20%. On CDK2, the “CDK2 HIBIT Protein Quantification Maximum” value is recorded as 79% and the DC50 came out at 3.34 nM. Further, the “CCNE1 HIBIT Protein Quantification Maximum” value at CCNE1 stood at 45%.

With `CC1CCCC1N1C(=O)C2(CC2)c2cnc(NC3CCN(S(=O)(=O)N4CC(N(C)C(=O)CCCc5cccc6c5n(C)c(=O)n6C5CCC(=O)NC5=O)C4)CC3)nc21` (stereo not drawn) [Compound 22, 4-(1-(2,6-dioxopiperidin-3-yl)-3-methyl-2-oxo-2,3-dihydro-1H-benzo[d]imidazol-4-yl)-N-methyl-N-(1-((4-((7′-(2-methylcyclopentyl)-6′-oxo-6′,7′-dihydrospiro[cyclopropane-1,5′-pyrrolo[2,3-d]pyrimidin]-2′-yl)amino)piperidin-1-yl)sulfonyl)azetidin-3-yl)butanamide], the Dmax at CDK9 was determined as 35%. Moreover, at CDK2, the “CDK2 HIBIT Protein Quantification Maximum” value stood at 57% and the DC50 is 44 nM. Besides, the “CCNE1 HIBIT Protein Quantification Maximum” value at CCNE1 amounted to 18%.

In the case of `Cn1c(=O)n(C2CCC(=O)NC2=O)c2ccc(-c3ccc(Oc4cccc(S(=O)(=O)N5CCC(Nc6ncc7c(n6)N([C@@H]6CCC[C@@H](O)C6)C(=O)C76CC6)CC5)c4)cc3)cc21` (stereo partly drawn) [Compound 149, 3-(5-{4-[3-(4-{7′-[(1R,3R)-3-Hydroxycyclohexyl]-6′-oxospiro[cyclopropane-1,5′-pyrrolo[2,3-d]pyrimidin]-2′-ylamino}piperidin-1-ylsulfonyl)phenoxy]phenyl}-3-methyl-2-oxo-1,3-benzodiazol-1-yl)piperidine-2,6-dione], the Dmax at CDK9 turned out to be 17%. Further, at CDK2, the “CDK2 HIBIT Protein Quantification Maximum” value is reported as 69% and the half-maximal degradation concentration (DC50) worked out at 13.9 nM. The “CCNE1 HIBIT Protein Quantification Maximum” value at CCNE1 is given as 11%.
